Legend:
[1] = test system: cotton event pDAB4468.19.10.3; assay: Tolerance to 2,4-D in field trials (percent visual injury); type: in vivo, Gossypium hirsutum; details: for Percent visual injury: single post-emergence application, 2-4 leaf
Protocol: The tolerance of cotton event pDAB4468.19.10.3 to post-emergence applications of the phenoxyacetic acid herbicide, 2,4-D, was studied in field trials during the 2010 growing season. Herbicide tolerance was assessed following a single post-emergence application of 2,4-D applied to 2-4 leaf cotton event pDAB4468.19.10.3. The application of 2,4-D on cotton plants at this stage of development represents a herbicide application timing typically utilized to achieve satisfactory weed control by cotton growers.
2,4-D tolerance was measured by assessing cotton plants for injury at 0-1 day after application (DAA), 7-8 DAA, 12-16 DAA, and 24-32 DAA. Measurements for the 0-1 day time increment were taken from 6-24 hours after the application. Injury was assessed by assigning a percent visual injury rating using a linear percentage scale (1-100%) where 0% represents no visible herbicide injury and 100% represents plant death. The ratings were a composite score for any herbicide symptomology including epinasty, chlorosis, leaf necrosis and plant death. Herbicide symptomology present at 0-1 DAA was primarily epinasty and symptoms at later evaluations were primarily chlorosis and necrosis.
(§1) Field trials were conducted at eleven locations across the United States in typical cotton producing areas of Alabama, Arkansas, California, Georgia, Louisiana, Mississippi, North Carolina, South Carolina, and Tennessee. Trials were designed with four replications per treatment. Each replication was separated by a bare-soil alley 10-15 feet wide. Plot size for individual treatments was 2 rows by 20 feet long with rows typically spaced 36-40 inches apart. Experimental treatments consisted of cotton event pDAB4468.19.10.3 sprayed with 2,4-D amine (Weedar 64™, NuFarm, Burr Ridge, Ill.) at either 0, 1120, 2240, or 4480 grams acid equivalent per hectare (g ae/ha) applied in 15 gallons per acre of final spray solution. A non-transformed cotton comparator treatment was not included in these experiments since treatment with 2,4-D at rates much lower than the lowest rate tested (1120 g ae/ha) are known to result in plant death.

[2] = test system: cotton event pDAB4468.19.10.3; assay: Agronomic characterization in field trials with and without herbicide applications; type: in vivo, Gossypium hirsutum; details: sprayed vs unsprayed event plants; standard field application rates
Description: The agronomic characteristics of cotton event pDAB4468.19.10.3 were quantified in field trials conducted across geographically different locations throughout the cotton belt in 2010. These studies compared the agronomic performance of cotton event pDAB4468.19.10.3 (with and without applications of the herbicides 2,4-D and glufosinate) to the non-transgenic near-isoline control, Coker 310. No agronomically meaningful unintended differences were observed between cotton event pDAB4468.19.10.3 and the Coker 310 control plants. […] Additionally, the agronomic performance of cotton event pDAB4468.19.10.3 was not altered as a result of the application of the herbicides, 2,4-D and glufosinate, as compared to the cotton event pDAB4468.19.10.3 plants which were not sprayed with the herbicide treatments. […]
Seeds of cotton event pDAB4468.19.10.3 and seeds of the near-isoline control line, Coker 310, were planted at a rate of 80 seeds per 20 ft row with a row spacing of 34-38 inches (86.36 cm-96.52 cm). […] The measured agronomic characteristics were equivalent for cotton event pDAB4468.19.10.3 as compared to the Coker 310 near-isoline control plants for all of the agronomic characteristics measured and statistically analyzed. […]

non-transformed cotton = details: rates much lower than the lowest rate tested (1120 g ae/ha); known; cited from earlier work
[3] = test system: cotton event pDAB4468.19.10.3; assay: Tolerance to glufosinate in field trials (percent visual injury); type: in vivo, Gossypium hirsutum; details: for Percent visual injury: single post-emergence application, 6-8 leaf
Protocol: The tolerance of cotton event pDAB4468.19.10.3 to post-emergence applications of glufosinate was studied in field trials during the 2010 growing season. Herbicide tolerance was assessed following a single post-emergence application of glufosinate applied to 6-8 leaf cotton event pDAB4468.19.10.3, which represents a herbicide application timing typically utilized with glufosinate to achieve satisfactory weed control.
Glufosinate tolerance was measured by assessing cotton plants for injury at 2-4 days after application (DAA), 7-9 DAA, 13-19 DAA and 22-29 DAA. Injury was assessed by assigning a percent visual injury rating using a linear percentage scale (1-100) where 0% represents no visible herbicide injury and 100% represents plant death. The ratings were a composite score for any herbicide symptomology including chlorosis, leaf necrosis, stunting and plant death. Herbicide symptomology (where present) was primarily chlorosis and necrosis.
as §1, with “glufosinate ammonium (Ignite 280 SL™, Bayer, Research Triangle, N.C.)” for “2,4-D amine (Weedar 64™, NuFarm, Burr Ridge, Ill.)”, “542, 1084,” for “1120, 2240,”, “2168” for “4480”, “glufosinate” for “2,4-D”, “(542” for “(1120”, “would be expected” for “are known”

Q: Which “herbicide injury noted in the field experiments” value ([1]; 1120-4480 g ae/ha, with the exception of transient epinasty 0-1 DAA) does the source give for `O=C(O)COc1ccc(Cl)cc1Cl` [2,4-D] here?
A: no agronomically-significant herbicide injury

Q: And the Percent visual injury ([1]; 1120 g ae/ha, 0-1 DAA)?
A: 3.6%

Q: What about the Percent visual injury ([1]; 1120 g ae/ha, 7-8 DAA) of the same compound?
A: 1.4%

Q: What about the Percent visual injury ([1]; 1120 g ae/ha, 12-16 DAA) of the same compound?
A: 0.6%

Q: What about the Percent visual injury ([1]; 1120 g ae/ha, 24-32 DAA) of the same compound?
A: 0.0%

Q: What about the Percent visual injury ([1]; 2240 g ae/ha, 0-1 DAA) of the same compound?
A: 11.8%

Q: And the Percent visual injury ([1]; 2240 g ae/ha, 7-8 DAA)?
A: 3.5%

Q: And the Percent visual injury ([1]; 2240 g ae/ha, 12-16 DAA)?
A: 2.7%

Q: What about the Percent visual injury ([1]; 2240 g ae/ha, 24-32 DAA) of the same compound?
A: 0.1%

Q: And the “crop injury beyond the 7-8 DAA evaluation interval” value ([1]; 4480 g ae/ha (>4x rate required for weed control))?
A: little crop injury

Q: And the Percent visual injury ([1]; 4480 g ae/ha, 0-1 DAA)?
A: 19.4%

Q: What about the Percent visual injury ([1]; 4480 g ae/ha, 7-8 DAA) of the same compound?
A: 11.0%

Q: And the Percent visual injury ([1]; 4480 g ae/ha, 12-16 DAA)?
A: 5.9%

Q: And the Percent visual injury ([1]; 4480 g ae/ha, 24-32 DAA)?
A: 0.6%

Q: And the “agronomic performance of the event as a result of herbicide application” value [2]?
A: not altered

Q: What about the “result of treatment of non-transformed cotton” value (non-transformed cotton) of the same compound?
A: plant death

Q: With `CP(=O)(O)CCC(N)C(=O)O` (stereo not shown) [glufosinate] as the compound, how does the “herbicide injury noted in the field experiments” value ([3]; 542-2168 g ae/ha, with the exception of transient chlorosis at 2168 g ae/ha at 2-4 & 7-9 DAA) read?
A: no agronomically significant herbicide injury

Q: And the Percent visual injury ([3]; 542 g ae/ha, 2-4 DAA)?
A: 2.7%

Q: And the Percent visual injury ([3]; 542 g ae/ha, 7-9 DAA)?
A: 1.9%

Q: And the Percent visual injury ([3]; 542 g ae/ha, 13-19 DAA)?
A: 0.1%

Q: What about the Percent visual injury ([3]; 542 g ae/ha, 22-29 DAA) of the same compound?
A: 0.0%

Q: And the Percent visual injury ([3]; 1084 g ae/ha, 2-4 DAA)?
A: 6.6%

Q: What about the Percent visual injury ([3]; 1084 g ae/ha, 7-9 DAA) of the same compound?
A: 4.0%

Q: What about the Percent visual injury ([3]; 1084 g ae/ha, 13-19 DAA) of the same compound?
A: 0.2%

Q: And the Percent visual injury ([3]; 1084 g ae/ha, 22-29 DAA)?
A: 0.0%

Q: And the “crop injury beyond the 7-9 DAA evaluation interval” value ([3]; 2168 g ae/ha (>4x rate required for weed control))?
A: little crop injury

Q: What about the Percent visual injury ([3]; 2168 g ae/ha, 2-4 DAA) of the same compound?
A: 13.5%

Q: What about the Percent visual injury ([3]; 2168 g ae/ha, 7-9 DAA) of the same compound?
A: 10.0%

Q: And the Percent visual injury ([3]; 2168 g ae/ha, 13-19 DAA)?
A: 2.3%

Q: And the Percent visual injury ([3]; 2168 g ae/ha, 22-29 DAA)?
A: 0.3%

Q: What about the “agronomic performance of the event as a result of herbicide application” value [2] of the same compound?
A: not altered
